# Test results taken from patent US4129737A, “Process for the preparation of an 8-alkyl-5-oxo-5,8-dihydro-pyrido(2,3-d)pyrimidine-6-carboxylic acid” (priority 1972, dated 1978).
# Like-named read-outs stand apart in the source and are kept apart here.
# What was measured:
# Pr. vulgaris 12-53 = assay: Average MIC, solid medium (nutrient agar) dilution method; settings: Proteus vulgaris, 1253, 18 h, read-out: minimum inhibitory concentration, average
# in vivo = settings: dog, 2.5 mg/kg
# Experimental: In an experiment involving a 20 kg dog, 50 mg of the compound of Example VIII, corresponding to 2.5 mg/kg, were administered by means of a probang. The urine of the animal was removed by catheterisation at the 3rd and at the 7th hour, and the anti-bacterial activity of these samples was measured, taking the compound administered as the reference product.
# Esch 111 B4 = assay: Average MIC, solid medium (nutrient agar) dilution method; format: cell-based; settings: 18 h, average of five determinations, read-out: minimum inhibitory concentration, average
# Streptococcus = assay: Minimum inhibitory concentration by agar dilution, Streptococcus Group A; format: cell-based; settings: 37° C., 18 hours, read-out: minimum inhibitory concentration (M.I.C.)
# Experimental: (§1) (a) Trypticase soya medium (T.S.A.), which is very suitable for culturing the majority of microorganisms; it has the following composition:
# (§2) (b) Ordinarily nutrient agar (N.A.), which is less rich in nutrients, corresponds to the following formulation: […]
# (§3) Table I gives the minimum inhibitory concentrations (expressed in μg/cm^3) for the various microorganisms tested on each medium.
# (§4) The products were tested on three Gram positive microorganisms (1 to 3) […] and on 10 Gram negative microorganisms (4 to 13).
# (§5) Table (II) gives the minimum inhibitory concentrations of the compounds of Examples XII to XVI, determined on the agar medium, N.A., and expressed in μg/cm^3.
# Klebs. pneumoniae 10.031 = assay: Average MIC, solid medium (nutrient agar) dilution method; settings: Klebsiella pneumoniae, 10.031, 18 h, read-out: minimum inhibitory concentration, average
# dog = settings: in vivo, 100 mg/kg/day
# Pr. morganii = assay: Minimum inhibitory concentration by agar dilution, Pr. morganii; format: cell-based; settings: Morganella morganii, 37° C., 18 hours, read-out: minimum inhibitory concentration (M.I.C.)
# Experimental: as §1, §2, §3, §4, §5
# Streptococcus A561 = assay: Average MIC, solid medium (nutrient agar) dilution method; settings: A561, 18 h, read-out: minimum inhibitory concentration, average
# B. subtilis = assay: Minimum inhibitory concentration by agar dilution, B. subtilis; format: cell-based; settings: Bacillus subtilis, 37° C., 18 hours, read-out: minimum inhibitory concentration (M.I.C.)
# Experimental: as §1, §2, §3, §4, §5
# Bord. bronch. 4617 = assay: Average MIC, solid medium (nutrient agar) dilution method; settings: 18 h, read-out: minimum inhibitory concentration, average
# Staphylococcus 209 P = assay: Minimum inhibitory concentration by agar dilution, Staphylococcus 209 P; format: cell-based; settings: Staphylococcus, 37° C., 18 hours, read-out: minimum inhibitory concentration (M.I.C.)
# Experimental: as §1, §2, §3, §4, §5
# Pr. mirabilis = assay: Minimum inhibitory concentration by agar dilution, Pr. mirabilis; format: cell-based; settings: Proteus mirabilis, 37° C., 18 hours, read-out: minimum inhibitory concentration (M.I.C.)
# Experimental: as §1, §2, §3, §4, §5
# Salm. typhi = assay: Minimum inhibitory concentration by agar dilution, Salm. typhi; format: cell-based; settings: Salmonella enterica, 18 h
# Experimental: as §1, §2, §3, §4, §5
# [1] = Toxicity, overall statement; settings: in vivo
# Staphylococcus 9144 = assay: Average MIC, solid medium (nutrient agar) dilution method; settings: Staphylococcus, 9144, 18 h, read-out: minimum inhibitory concentration, average
# Esch. coli. LRB 67 = assay: as above; settings: Escherichia coli, 18 h, read-out: minimum inhibitory concentration, average
# [2] = N.A. (nutrient agar, pH 6.8), Table I
# [3] = T.S.A. (trypticase soya medium, pH 7.3)
smiles,measurement,setting,value
"CCn1cc(C(=O)O)c(=O)c2cnc(N3CCNCC3)nc21 [Example VIII, 2-Piperazino-5-oxo-8-ethyl-5,8-dihydro-pyrido(2,3-d)pyrimidine-6-carboxylicacid]",MIC,Pr. vulgaris 12-53,0.36 µg/mL
same,urinary concentration at 7 hours relative to minimum inhibitory concentrations,in vivo,still very much greater than the minimum inhibitory concentrations
same,concentration at 3 h,in vivo; po,185 µg/mL
same,concentration at 7 h,in vivo; po,90 µg/mL
same,MIC,Esch 111 B4,1.64 µg/mL
same,MIC,Streptococcus; [2],25 µg/mL
same,MIC,Streptococcus; [3],25 µg/mL
same,MIC,Klebs. pneumoniae 10.031,1.88 µg/mL
same,toxic signs,dog,without showing any toxic signs
same,MIC,Pr. morganii; [2],0.8 µg/mL
same,MIC,Pr. morganii; [3],0.8 µg/mL
same,MIC,Streptococcus A561,13.7 µg/mL
same,MIC,B. subtilis; [2],3.1 µg/mL
same,MIC,B. subtilis; [3],6.2 µg/mL
same,MIC,Bord. bronch. 4617,75 µg/mL
same,MIC,Staphylococcus 209 P; [2],12.5 µg/mL
same,MIC,Staphylococcus 209 P; [3],12.5 µg/mL
same,MIC,Pr. mirabilis; [2],0.8 µg/mL
same,MIC,Pr. mirabilis; [3],0.8 µg/mL
same,MIC,"Salm. typhi; pH 6.8, read-out: minimum inhibitory concentration (M.I.C.)",6.2 µg/mL
same,MIC,"Salm. typhi; pH 7.3, read-out: minimum inhibitory concentration (M.I.C.)",1.6 µg/mL
same,toxicity,[1],very low toxicity
same,MIC,Staphylococcus 9144,6.22 µg/mL
same,MIC,Esch. coli. LRB 67,1.2 µg/mL
